1 compound from patent US20220047569A1, “METHOD AND COMPOUND FOR USE, IN TREATING AND/OR PREVENTING NETOSIS” (Jubilant EpiPad LLC, priority 2020, published 2022) can be followed below.

The subject of the assay is Histone H3 Citrullination in Neutrophils. As to the kind of experiment: Citrullination ELISA (Citrullinated Histone H3) in calcium ionophore stimulated neutrophils. Conditions: Neutrophil; human neutrophils, 25 μM calcium ionophore, CitH3 ELISA. The assay is classed as cell-based. The essentials:
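Freshly isolated human donor neutrophils in RPMI with 2% BSA and 1 mM CaCl2 were pre-incubated 30 min with compound (10, 1, 0.1 μM), then stimulated 30 min with 25 μM calcium ionophore. After S7 nuclease digestion, lysates were assayed by citrullinated histone H3 ELISA (450 nm); IC50 from sigmoidal fits.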
(ELISA stands for enzyme-linked immunosorbent assay.)

Broadly, the IC50 is the concentration needed to halve the response being measured. Turning to `N[C@@H]1CCCN(C(=O)c2cc3c4c(c2)nc(-c2cc5cccc(Cl)c5n2CC2CC2)n4CCO3)C1` [Compound 143, (R)-(3-aminopiperidin-1-yl)(2-(7-chloro-1-(cyclopropylmethyl)-1H-indol-2-yl)-3,4-dihydro-5-oxa-1,2a-diazaacenaphthylen-7-yl)methanone], the IC50 was 100 to 1000 nM.
